Laboratory results taken from patent US20120128705A1, “C6ORF167 PEPTIDES AND VACCINES CONTAINING THE SAME” (OncoTherapy Science, Inc., priority 2009, published 2012).
Ends that are not written are not given here.

Legend:
peptide-pulsed A24LCL [1] = experiment: IFN-gamma ELISPOT assay on CTLs induced with peptide (HLA-A*2402); type: cell-based, human; conditions: CTLs from HLA-A*2402 positive donor, 3 rounds of stimulation, day 21; vs control wells without peptide
Text: Monocyte-derived dendritic cells (DCs) were used as antigen-presenting cells (APCs) to induce cytotoxic T lymphocyte (CTL) responses against peptides presented on human leukocyte antigen (HLA). DCs were generated in vitro as described elsewhere (Nakahara S et al., Cancer Res 2003 Jul. 15, 63(14): 4112-8). Specifically, peripheral blood mononuclear cells (PBMCs) isolated from a normal volunteer (HLA-A*2402 positive) by Ficoll-Plaque (Pharmacia) solution were separated by adherence to a plastic tissue culture dish (Becton Dickinson) so as to enrich them as the monocyte fraction. The monocyte-enriched population was cultured in the presence of 1,000 U/ml of granulocyte-macrophage colony-stimulating factor (GM-CSF) (R&D System) and 1,000 U/ml of interleukin (IL)-4 (R&D System) in AIM-V Medium (Invitrogen) containing 2% heat-inactivated autologous serum (AS). After 7 days of culture, the cytokine-induced DCs were pulsed with 20 micro-g/ml of each of the synthesized peptides in the presence of 3 micro-g/ml of beta 2-microglobulin for 3 hrs at 37 degrees C. in AIM-V Medium. The generated cells appeared to express DC-associated molecules, such as CD80, CD83, CD86 and HLA class II, on their cell surfaces (data not shown). These peptide-pulsed DCs were then inactivated by X-irradiation (20 Gy) and mixed at a 1:20 ratio with autologous CD8+ T cells, obtained by positive selection with CD8 positive Isolation Kit (Dynal). These cultures were set up in 48-well plates (Corning); each well contained 1.5×10^4 peptide-pulsed DCs, 3×10^5 CD8+ T cells and 10 ng/ml of IL-7 (R&D System) in 0.5 ml of AIM-V/2% AS medium. Three days later, these cultures were supplemented with IL-2 (CHIRON) to a final concentration of 20 IU/ml. On days 7 and 14, the T cells were further stimulated with the autologous peptide-pulsed DCs. The DCs were prepared each time by the same way described above. CTL was tested against peptide-pulsed A24LCL cells after the 3rd round of peptide stimulation on day 21 (Tanaka H et al., Br J Cancer 2001 Jan. 5, 84(1): 94-9; Umano Y et al., Br J Cancer 2001 Apr. 20, 84(8): 1052-7; Uchida N et al., Clin Cancer Res 2004 Dec. 15, 10(24): 8577-86; Suda T et al., Cancer Sci 2006 May, 97(5): 411-9; Watanabe T et al., Cancer Sci 2005 August, 96(8): 498-506).
(§1) To examine specific CTL activity, interferon (IFN)-gamma enzyme-linked immunospot (ELISPOT) assay and IFN-gamma enzyme-linked immunosorbent assay (ELISA) were performed. Specifically, peptide-pulsed A24LCL (1×10^4/well) was prepared as stimulator cells. Cultured cells in 48 wells were used as responder cells. IFN-gamma ELISPOT assay and IFN-gamma ELISA assay were performed under manufacture procedure.

[2] = test system: COS7 cells transfected with C6orf167 and HLA-A*2402; experiment: Specific CTL activity against target cells exogenously expressing C6orf167 and HLA-A*2402; type: cell-based, African green monkey; conditions: for Specific CTL activity against control COS7 cells: COS7 transfected with either full length C6orf167 or HLA-A*2402 alone; for Specific CTL activity against COS7 cells expressing both C6orf167 and HLA-A*2402: CTL lines raised by the peptide as effector cells
Text: The cDNA encoding an open reading frame of target genes or HLA-A*2402 was amplified by PCR. The PCR-amplified product was cloned into pCAGGS vector. The plasmids were transfected into COS7, which is the target genes and HLA-A24-negative cell line, using lipofectamine 2000 (Invitrogen) according to the manufacturer's recommended procedures. After 2 days from transfection, the transfected cells were harvested with versene (Invitrogen) and used as the target cells (5×10^4 cells/well) for CTL activity assay.
The established CTL lines raised against these peptides were examined for their ability to recognize target cells that endogenously express C6orf167 and HLA-A*2402 molecule. Specific CTL activity against COS7 cells which transfected with both the full length of C6orf167 and HLA-A*2402 molecule gene (a specific model for the target cells that exogenously express C6orf167 and HLA-A*2402 gene) was tested using the CTL lines raised by corresponding peptide as the effecter cells. COS7 cells transfected with either full length of C6orf167 genes or HLA-A*2402 were prepared as controls.

peptide-pulsed A24LCL [3] = experiment: IFN-gamma ELISA assay of CTL lines (HLA-A*2402); type: cell-based, human; conditions: target cells pulsed with corresponding peptide vs without peptide pulse
Method: CTLs were expanded in culture using the method similar to the one described by Riddell et al. (Walter E A et al., N Engl J Med 1995 Oct. 19, 333(16): 1038-44; Riddell S R et al., Nat Med 1996 February, 2(2): 216-23). A total of 5×10^4 CTLs were suspended in 25 ml of AIM-V/5% AS medium with 2 kinds of human B-lymphoblastoid cell lines, inactivated by Mitomycin C, in the presence of 40 ng/ml of anti-CD3 monoclonal antibody (Pharmingen). One day after initiating the cultures, 120 IU/ml of IL-2 were added to the cultures. The cultures were fed with fresh AIM-V/5% AS medium containing 30 IU/ml of IL-2 on days 5, 8 and 11 (Tanaka H et al., Br J Cancer 2001 Jan. 5, 84(1): 94-9; Umano Y et al., Br J Cancer 2001 Apr. 20, 84(8): 1052-7; Uchida N et al., Clin Cancer Res 2004 Dec. 15, 10(24): 8577-86; Suda T et al., Cancer Sci 2006 May, 97(5): 411-9; Watanabe T et al., Cancer Sci 2005 August, 96(8): 498-506).
as §1

peptide-pulsed A24LCL [4] = experiment: IFN-gamma ELISA assay of CTL clones (HLA-A*2402); type: cell-based, human; conditions: clones by limiting dilution; target cells pulsed with peptide
Method: The dilutions were made to have 0.3, 1, and 3 CTLs/well in 96 round-bottomed micro titer plate (Nalge Nunc International). CTLs were cultured with 1×10^4 cells/well of 2 kinds of human B-lymphoblastoid cell lines, 30 ng/ml of anti-CD3 antibody, and 125 U/ml of IL-2 in a total of […] of AIM-V Medium containing 5% AS. 50 micro-1/well of IL-2 were added to the medium 10 days later so to reach a final concentration of 125 U/ml IL-2. CTL activity was tested on the 14th day, and CTL clones were expanded using the same method as described above (Uchida N et al., Clin Cancer Res 2004 Dec. 15, 10(24): 8577-86; Suda T et al., Cancer Sci 2006 May, 97(5): 411-9; Watanabe T et al., Cancer Sci 2005 August, 96(8): 498-506).
as §1

Substance: IYIDgVQEVF (IYIDGVQEVF; not fully specified; printed as IYIDgVQEVF) [SEQ ID NO: 33]
- Peptide specific CTL activity: IFN-gamma production by ELISPOT (peptide-pulsed A24LCL [1]): potent IFN-gamma production
- Specific CTL activity against control COS7 cells [2]: no significant specific CTL activity
- Specific CTL activity against COS7 cells expressing both C6orf167 and HLA-A*2402 [2]: potent CTL activity
- IFN-gamma production of CTL lines by ELISA (peptide-pulsed A24LCL [3]): potent IFN-gamma production

Substance: LVLEILYML [SEQ ID NO: 30]
- IFN-gamma production of CTL clones by ELISA (peptide-pulsed A24LCL [4]): Potent IFN-gamma productions
- Peptide specific CTL activity: IFN-gamma production by ELISPOT (peptide-pulsed A24LCL [1]): potent IFN-gamma production
- IFN-gamma production of CTL lines by ELISA (peptide-pulsed A24LCL [3]): potent IFN-gamma production

Substance: LYIGHLSEL [SEQ ID NO: 2]
- IFN-gamma production of CTL clones by ELISA (peptide-pulsed A24LCL [4]): Potent IFN-gamma productions
- Peptide specific CTL activity: IFN-gamma production by ELISPOT (peptide-pulsed A24LCL [1]): potent IFN-gamma production
- Specific CTL activity against control COS7 cells [2]: no significant specific CTL activity
- Specific CTL activity against COS7 cells expressing both C6orf167 and HLA-A*2402 [2]: potent CTL activity
- IFN-gamma production of CTL lines by ELISA (peptide-pulsed A24LCL [3]): potent IFN-gamma production

Substance: MYLHCCLTL [SEQ ID NO: 4]
- IFN-gamma production of CTL clones by ELISA (peptide-pulsed A24LCL [4]): Potent IFN-gamma productions
- Peptide specific CTL activity: IFN-gamma production by ELISPOT (peptide-pulsed A24LCL [1]): potent IFN-gamma production
- IFN-gamma production of CTL lines by ELISA (peptide-pulsed A24LCL [3]): potent IFN-gamma production

Substance: NFFSLFLLL [SEQ ID NO: 16]
- IFN-gamma production of CTL clones by ELISA (peptide-pulsed A24LCL [4]): Potent IFN-gamma productions
- Peptide specific CTL activity: IFN-gamma production by ELISPOT (peptide-pulsed A24LCL [1]): potent IFN-gamma production
- IFN-gamma production of CTL lines by ELISA (peptide-pulsed A24LCL [3]): potent IFN-gamma production

Substance: RYYYQVYSI [SEQ ID NO: 9]
- IFN-gamma production of CTL clones by ELISA (peptide-pulsed A24LCL [4]): Potent IFN-gamma productions
- Peptide specific CTL activity: IFN-gamma production by ELISPOT (peptide-pulsed A24LCL [1]): potent IFN-gamma production
- Specific CTL activity against control COS7 cells [2]: no significant specific CTL activity
- Specific CTL activity against COS7 cells expressing both C6orf167 and HLA-A*2402 [2]: potent CTL activity
- IFN-gamma production of CTL lines by ELISA (peptide-pulsed A24LCL [3]): potent IFN-gamma production

Substance: VYGHQFMNL [SEQ ID NO: 7]
- IFN-gamma production of CTL clones by ELISA (peptide-pulsed A24LCL [4]): Potent IFN-gamma productions
- Peptide specific CTL activity: IFN-gamma production by ELISPOT (peptide-pulsed A24LCL [1]): potent IFN-gamma production
- Specific CTL activity against control COS7 cells [2]: no significant specific CTL activity
- Specific CTL activity against COS7 cells expressing both C6orf167 and HLA-A*2402 [2]: potent CTL activity
- IFN-gamma production of CTL lines by ELISA (peptide-pulsed A24LCL [3]): potent IFN-gamma production
